Measured values: US20240246905A1 (University of Leicester, priority 2021, published 2024)
In brackets after ≈: the same amount, converted by molar mass. Read-outs that look alike come from different tables or passages of the source.

What was measured:
[1] = system: Staphylococcus aureus 15981; test: Disc diffusion (Kirby-Bauer), zone of inhibition; assay type: cell-based; conditions: Staphylococcus aureus 15981, 500 μg/mL, '/' = no zone; for zone of inhibition at 500 µg/mL: read-out: Zone of inhibition
Procedure: (§1) E. coli DH5α, P. aeruginosa PA01 and the 53 S. aureus strains were recovered from frozen (−80° C.) glycerol (15% v/v) stocks on Lysogeny agar (LA)—Gram negative and trypticase soy agar (TSA)—plates at 37° C. for 24 hours. Single colonies were placed in either 3 mL Lysogeny broth (LB)—Gram negative or trypticase soy broth (TSB)—Gram positive and incubated at 37° C., 250 rpm for 18 hours.
(§2) The antibiotic activity was determined using a Kirby-Bauer method according to Clinical Standard Laboratory Institute (CSLI) Guidelines (2017). Briefly, 180 μL of a 1 in 200 dilution (in LB or TSB) of overnight cultures of selected Gram negative and Gram positive bacteria were applied to an agar plate containing the solid growth medium, Mueller-Hinton agar (MHA). Sterile discs, inoculated with 50 μL of antibiotic, were first added to the agar plate before the plates were incubated for 24 hours at 37° C. Following incubation, the zone of inhibition (if it existed) was recorded.

MRSA 252 [2] = test: MIC, broth micro-dilution; assay type: cell-based, Staphylococcus aureus; conditions: Staphylococcus aureus, read-out: MIC
Procedure: as §1
(§3) Antibiotic MIC's were determined by a broth micro-dilution method according to Clinical Standard Laboratory Institute (CSLI) Guidelines (2017). Briefly, 96-well microplates, each containing 195 μL of the 1:2 dilution antibiotic in TSB, were inoculated with 5 μL of overnight cultured bacteria, diluted to give a starting bacterial concentration of 5×10^5 CFU/mL. The optical density of each well inoculated was recorded every 12 minutes over an 18 hour period at 37° C. The data from this was plotted in OriginPro8 (OriginLab) and sigmoidal curves fitted using the dose response function. Fitted values for each curve were used to calculate the MIC.

MSSA 476 [3] = test: MIC, broth micro-dilution; assay type: cell-based, Staphylococcus aureus
Procedure: as §1, §3

MRSA 252 [4] = test: Disc diffusion (Kirby-Bauer), zone of inhibition; assay type: cell-based, Staphylococcus aureus; conditions: Staphylococcus aureus, 500 μg/mL, '/' = no zone, read-out: Zone of inhibition
Procedure: as §1, §2

MSSA 476 [5] = test: Disc diffusion (Kirby-Bauer), zone of inhibition; assay type: cell-based, Staphylococcus aureus; conditions: 500 μg/mL, '/' = no zone; for zone of inhibition at 500 µg/mL: Staphylococcus aureus, read-out: Zone of inhibition
Procedure: as §1, §2

[6] = system: Pseudomonas aeruginosa PA01; test: Disc diffusion (Kirby-Bauer), zone of inhibition; assay type: cell-based; conditions: 500 μg/mL, '/' = no zone
Procedure: as §1, §2

[7] = system: MRSA 252, MSSA 476, S. aureus 15981, P. aeruginosa PA01 and E. coli DH5α; test: Disc diffusion primary screening, five strains (statements in words); assay type: cell-based; conditions: 500 μg/mL
Procedure: As such, the minimum inhibition concentration (MICs) of biologically active compounds were further assessed using the broth dilution method against the S. aureus strains; MRSA 252 and MSSA 476 (Table 1). The results of both assays enabled key structural elements and functional groups required for the compounds to retain their antibiotic activity to be identified.
as §2

Escherichia coli DH5α = test: Disc diffusion (Kirby-Bauer), zone of inhibition; assay type: cell-based; conditions: Escherichia coli DH5α; 500 μg/mL; '/' = no zone; read-out: Zone of inhibition
Procedure: as §1, §2

C. tropicalis ATCC 450 = test: Anti-fungal MIC (CO-ADD); assay type: cell-based; conditions: Candida tropicalis, ATCC450, read-out: MIC
Procedure: (§4) Fungal strains were cultured for 3 days on Yeast Extract-Peptone Dextrose (YPD) agar at 30° C. A yeast suspension of 1×10^6 to 5×10^6 CFU/mL (as determined by OD530) was prepared from five colonies. […] All plates were covered and incubated at 35° C. for 36 hours without shaking. […] The absorbance was measured using a Biotek Multiflo Synergy HTX plate reader. In both cases, the percentage of growth inhibition was calculated for each well, using the negative control (media only) and positive control (fungi without inhibitors) on the same plate. […] Due to a higher variance in growth and inhibition, a lower threshold was applied to the data for C. neoformans. In addition, the maximal percentage of growth inhibition is reported as DMax, indicating any compounds with marginal activity.

C. tropicalis ATCC 750 = test: Anti-fungal MIC (CO-ADD); assay type: cell-based; conditions: Candida tropicalis, ATCC750, read-out: MIC
Procedure: as §4

[8] = system: C. deuterogattii ATCC 32609; test: Anti-fungal MIC (CO-ADD); assay type: cell-based; conditions: read-out: MIC
Procedure: as §4

C. glabrata ATCC 90030 = test: Anti-fungal MIC (CO-ADD); assay type: cell-based; conditions: Nakaseomyces glabratus, ATCC90030, read-out: MIC
Procedure: as §4

[9] = system: C. neoformans H99; ATCC 208821; test: Anti-fungal MIC (CO-ADD); assay type: cell-based; conditions: Cryptococcus neoformans, ATCC208821, read-out: MIC
Procedure: as §4

C. albicans ATCC 90028 = test: Anti-fungal MIC (CO-ADD); assay type: cell-based; conditions: Candida albicans, ATCC90028, read-out: MIC
Procedure: as §4

[10] = Staphylococcus aureus, MSSA, read-out: MIC

| SMILES | MIC (MRSA 252 [2]) [µg/mL] | MIC (MSSA 476 [3]; [10]) [µg/mL] | zone of inhibition at 500 µg/mL [1] [mm] | zone of inhibition at 500 µg/mL (MRSA 252 [4]) [mm] | zone of inhibition at 500 µg/mL (MSSA 476 [5]) [mm] | zone of inhibition at 500 µg/mL [6] [mm] | other results |
| --- | --- | --- | --- | --- | --- | --- | --- |
| [C-]#[N+]C=Cc1cc(OC)ccc1OC (mixture of isomers) [Compound 18, (E/Z)-2-(Isocyanovinyl)-1,4-dimethoxybenzene] | 117 | 210 | 20 | 14 | 26 | – | – |
| [C-]#[N+]CCc1ccc(O)cc1 [Compound 4, 4-(2-Isocyanoethyl)phenol] | – | – | – | – | – | – | antibiotic activity in disc diffusion assays (in words) [7]: complete loss of activity against all five strains |
| [C-]#[N+]c1ccc(O)cc1 [Compound 5, 4-Isocyanophenol] | 26 (≈ 218 µM) | 23 (≈ 193 µM) | 16 | 26 | 30 | 26 | zone of inhibition at 500 µg/mL (Escherichia coli DH5α): 18 mm |
| [C-]#[N+]C=Cc1ccc(NC(=O)OC(C)(C)C)cc1 [Compound 23, Tert-butyl(4-(isocyanovinyl)phenyl)carbamate] | 35 (≈ 143 µM) | 164 (≈ 671 µM) | 14 | 18 | 20 | 14 | zone of inhibition at 500 µg/mL (Escherichia coli DH5α): 14 mm |
| [C-]#[N+]C=C(C)c1ccc(NS(C)(=O)=O)cc1 [Compound 24, N-(4-(1-Isocyanoprop-1-en-2-yl)phenyl)methanesulfonamie] | 152 (≈ 643 µM) | 291 (≈ 1230 µM) | 18 | 16 | 22 | – | zone of inhibition at 500 µg/mL (Escherichia coli DH5α): 14 mm |
| [C-]#[N+]C=Cc1cn(CC)c2ccccc12 [Compound 28] | 56 (≈ 285 µM) | 144 (≈ 734 µM) | 22 | 26 | 22 | 20 | – |
| [C-]#[N+]/C=C/c1cn(C(C)C)c2ccccc12 [Compound 29] | 63 (≈ 300 µM) | 90 (≈ 428 µM) | 16 | 22 | 16 | 12 | – |
| [C-]#[N+]C=Cc1c[nH]c2cccc(Br)c12 [Compound 31, 4-Bromo-3-(2-isocyanovinyl)-1H-indole] | – | – | – | – | – | – | Zone of inhibition [1]: 12 mm; MIC (MSSA 476 [3]): 361 µg/mL (≈ 1460 µM); Zone of inhibition (MSSA 476 [5]): 12 mm |
| [C-]#[N+]/C=C/c1cc(/C=C/c2ccccc2)ccc1O [Compound 37] | 105 (≈ 425 µM) | 120 (≈ 485 µM) | 22 | 22 | 24 | – | antibiotic activity in disc diffusion assays (in words) [7]: retained antibiotic activity |
| [C-]#[N+]/C=C/c1ccc(NC(C)=O)cc1-c1ccccc1 [Compound 43, (E)-N-(6-(2-Isocyanovinyl)-(1,1-biphenyl)-3-yl)acetamide] | 32 (≈ 122 µM) | 26 (≈ 99.1 µM) | 18 | 22 | 18 | – | – |
| [C-]#[N+]/C=C/c1ccc(NC(C)=O)cc1/C=C/c1ccncc1 [Compound 44, N-(4-((E)-2-Isocyanovinyl)-3-((E)-2-(pyridin-4-yl)vinyl)phenyl)acetamide] | 35 (≈ 121 µM) | 46 (≈ 159 µM) | 30 | 28 | 28 | 26 | antibiotic activity in disc diffusion assays (in words) [7]: antibiotic activity against four of the strains |

Further lines, with some results ahead:

| MIC (MRSA 252 [2]) [µg/mL] | MIC (MSSA 476 [3]; [10]) [µg/mL] | SMILES | zone of inhibition at 500 µg/mL [1] [mm] | zone of inhibition at 500 µg/mL (MRSA 252 [4]) [mm] | zone of inhibition at 500 µg/mL (MSSA 476 [5]) [mm] | zone of inhibition at 500 µg/mL [6] [mm] | other results |
| --- | --- | --- | --- | --- | --- | --- | --- |
| 250 (≈ 1720 µM) | 350 (≈ 2410 µM) | [C-]#[N+]/C=C/c1ccccc1O (single isomer, unassigned) [Compound 11, 2-(2-isocyanovinyl)phenol] | 14 | 18 | 20 | 12 | – |
| 137 (≈ 944 µM) | 300 (≈ 2070 µM) | [C-]#[N+]C=Cc1cccc(O)c1 [Compound 10, 3-(2-Isocyanovinyl)phenol] | 18 | 20 | 16 | – | – |
| 123 (≈ 702 µM) | 187 (≈ 1070 µM) | [C-]#[N+]/C=C/c1cc(OC)ccc1O [Compound 12, (E)-2-(2-Isocyanovinyl)-4-methoxyphenol] | 16 | 16 | 14 | – | – |
| 185 (≈ 826 µM) | 200 (≈ 893 µM) | [C-]#[N+]C=Cc1ccc(O)cc1Br [Compound 15, 3-Bromo-4-(2-isocyanovinyl)phenol] | 24 | 20 | 22 | – | MIC (C. tropicalis ATCC 450): 4 µg/mL; MIC (C. tropicalis ATCC 750): 16 µg/mL; MIC [8]: 4 µg/mL; MIC (C. glabrata ATCC 90030): 32 µg/mL; MIC [9]: 8 µg/mL; MIC (C. albicans ATCC 90028): 8 µg/mL |
| 116 (≈ 720 µM) | 400 (≈ 2480 µM) | [C-]#[N+]C=Cc1ccc(O)c(O)c1 [Compound 16, 4-(2-Isocyanovinyl)benzene-1,2-diol] | 24 | 22 | 22 | 18 | – |
| 157 (≈ 518 µM) | 176 (≈ 581 µM) | [C-]#[N+]C=Cc1cc(Br)c(O)c(Br)c1 [Compound 17, 2,6-Dibromo-4-(2-isocyanovinyl)phenol] | 16 | 18 | 18 | – | – |
| 214 (≈ 866 µM) | 350 (≈ 1420 µM) | [C-]#[N+]C=Cc1c[nH]c2cccc(Br)c12 [Compound 30, 4-Bromo-3-(2-isocyanovinyl)-1H-indole] | 12 | 14 | 12 | – | – |
